Experimental data taken from ChEMBL document CHEMBL1201862, “PubChem BioAssay data set” (2004).
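Values below derive from 48-hour exposures of cells grown in 96-well plates, with endpoints linearly interpolated between the two concentrations bracketing the appropriate inhibition level. Abbreviation: GI50, concentration required for 50% inhibition of growth.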 Activity calls are given as the source filed them. No stated cut-off is given here; in the data, active = GI50 up to about 1.1 µM and inactive = higher. Where a SMILES comes first, the peptide text is derived from it. The star is where a group is joined. Boc = CC(C)(C)OC(=O)*

Legend:
Experiment in all cases: NCI tumour cell line growth inhibition, 48 h
Malme-3M = tested on: Malme-3M
MDA-MB-435 = tested on: MDA-MB-435
TK-10 = tested on: TK-10
ACHN = tested on: ACHN
MOLT-4 = tested on: MOLT-4
COLO 205 = tested on: COLO 205
U-251 = tested on: U-251
RXF 393 = tested on: RXF 393
SK-MEL-28 = tested on: SK-MEL-28
UACC-257 = tested on: UACC-257
MDA-MB-231 = tested on: MDA-MB-231
T47D = tested on: T47D
HL-60 = tested on: HL-60
BT-549 = tested on: BT-549
OVCAR-3 = tested on: OVCAR-3
MCF7 = tested on: MCF7
SK-MEL-2 = tested on: SK-MEL-2
SF-268 = tested on: SF-268
786-0 = tested on: 786-0
NCI-H226 = tested on: NCI-H226

| SMILES | GI50 (Malme-3M) | GI50 (MDA-MB-435) | GI50 (TK-10) | GI50 (ACHN) | GI50 (MOLT-4) | GI50 (COLO 205) | GI50 (U-251) | GI50 (RXF 393) | GI50 (SK-MEL-28) | GI50 (UACC-257) | GI50 (MDA-MB-231) | GI50 (T47D) | GI50 (HL-60) | GI50 (BT-549) | GI50 (OVCAR-3) | GI50 (MCF7) | GI50 (SK-MEL-2) | GI50 (SF-268) | GI50 (786-0) | GI50 (NCI-H226) |
| --- | --- | --- | --- | --- | --- | --- | --- | --- | --- | --- | --- | --- | --- | --- | --- | --- | --- | --- | --- | --- |
| CCOC(=O)Cn1c(=O)ccn(COCCO)c1=O | > 100 µM (inactive) | > 100 µM (inactive) | > 100 µM (inactive) | > 100 µM (inactive) | > 100 µM (inactive) | > 100 µM (inactive) | > 100 µM (inactive) | > 100 µM (inactive) | > 100 µM (inactive) | > 100 µM (inactive) | > 100 µM (inactive) | > 100 µM (inactive) | > 100 µM (inactive) | > 100 µM (inactive) | > 100 µM (inactive) | > 100 µM (inactive) | > 100 µM (inactive) | > 100 µM (inactive) |  |  |
| CC1NC(=O)C2Cc3ccc(O)c(c3)Oc3ccc(cc3)C(O)C(C(=O)N2C)N(C)C(=O)C(C)NC(=O)C(Cc2ccc(O)cc2)N(C)C(=O)C(C)NC1=O (stereo not given) |  | 18.8 µM (inactive) | > 100 µM (inactive) | > 100 µM (inactive) | 19.4 µM (inactive) | 79.6 µM (inactive) | 9.48 µM (inactive) |  | 19.2 µM (inactive) | 13.6 µM (inactive) | 11.1 µM (inactive) | 15.9 µM (inactive) | 13.9 µM (inactive) | 24.6 µM (inactive) | 25.3 µM (inactive) | 13.7 µM (inactive) | 8.41 µM (inactive) | 4.03 µM (inactive) | 38 µM (inactive) |  |
| CCCC1NC(C#N)(C#N)C(CCC)NC1(C#N)C#N (stereo not given) | 0.0297 µM (active) | 0.106 µM (active) | 1.01 µM (active) | 0.296 µM (active) | < 0.0214 µM (active) | < 0.01 µM (active) | 6.46 µM (inactive) |  | 44.9 µM (inactive) | > 100 µM (inactive) | 27.8 µM (inactive) | 0.946 µM (active) | < 0.0107 µM (active) | 1.12 µM (inactive) | 0.076 µM (active) | 0.0689 µM (active) | 52.1 µM (inactive) | 1.31 µM (inactive) | 0.0326 µM (active) | 22.1 µM (inactive) |
| COc1ccc(C2SCC(=O)N2NC2=NC(=O)CC(=O)N2)cc1 (stereo not given) | > 100 µM (inactive) | > 100 µM (inactive) | > 100 µM (inactive) | > 100 µM (inactive) | > 100 µM (inactive) | > 100 µM (inactive) | > 100 µM (inactive) | > 100 µM (inactive) | > 100 µM (inactive) | > 100 µM (inactive) | > 100 µM (inactive) | > 100 µM (inactive) |  | > 100 µM (inactive) | > 100 µM (inactive) | > 100 µM (inactive) | > 100 µM (inactive) | > 100 µM (inactive) | > 100 µM (inactive) | > 100 µM (inactive) |
| COC1CC(OC2C(C)OC(OC3C(C)OC(OC4C(C)OC(O[C@H]5CC[C@@]6(C)C(=CC[C@]7(O)[C@@H]6C[C@@H](OC(=O)/C=C(\C)C(C)C)[C@@]6(C)[C@]7(O)CC[C@@]6(O)C(C)=O)C5)CC4OC)CC3OC)CC2OC)OC(C)C1O (stereo not given in full) | > 12.5 µM (inactive) | > 12.5 µM (inactive) | > 12.5 µM (inactive) | > 12.5 µM (inactive) | > 12.5 µM (inactive) | > 12.5 µM (inactive) | > 12.5 µM (inactive) |  |  | > 12.5 µM (inactive) | 11.9 µM (inactive) | > 12.5 µM (inactive) | 5.11 µM (inactive) | > 12.5 µM (inactive) | > 12.5 µM (inactive) | > 12.5 µM (inactive) | > 12.5 µM (inactive) | > 12.5 µM (inactive) | > 12.5 µM (inactive) | > 12.5 µM (inactive) |
| CN(NC(=O)/C(=C/C=C/c1ccccc1)NC(=O)c1ccccc1)C1=C(Cl)C(=O)[N+](c2ccccc2)=CC1 | 37.9 µM (inactive) | 17 µM (inactive) | 55.2 µM (inactive) | 26.7 µM (inactive) | 24.3 µM (inactive) | 17.5 µM (inactive) | 19.8 µM (inactive) | 20.1 µM (inactive) | 16.9 µM (inactive) | 41.2 µM (inactive) | 18.4 µM (inactive) | 15.7 µM (inactive) |  | 22.5 µM (inactive) | 20.8 µM (inactive) | 16.7 µM (inactive) | 26.2 µM (inactive) | 29.6 µM (inactive) | 19.4 µM (inactive) | 17.9 µM (inactive) |
| CC1=NN(c2nc(N)nc(CC#N)n2)C(C)(C)C1 |  | > 100 µM (inactive) | > 100 µM (inactive) | > 100 µM (inactive) | > 100 µM (inactive) | > 100 µM (inactive) | > 100 µM (inactive) | > 100 µM (inactive) | > 100 µM (inactive) | > 100 µM (inactive) | > 100 µM (inactive) | > 100 µM (inactive) | > 100 µM (inactive) | > 100 µM (inactive) |  | > 100 µM (inactive) | > 100 µM (inactive) | > 100 µM (inactive) | > 100 µM (inactive) | > 100 µM (inactive) |
| COc1ccc(-c2cc(-c3ccccc3)nc(N)c2-c2ccc3ccccc3c2)cc1 | 1.25 µM (inactive) | 2.11 µM (inactive) | 3.15 µM (inactive) | 2.05 µM (inactive) | 2.37 µM (inactive) | 1.68 µM (inactive) | 1.95 µM (inactive) | 1.82 µM (inactive) | 1.95 µM (inactive) | 1.86 µM (inactive) | 1.6 µM (inactive) | 1.69 µM (inactive) |  | 1.64 µM (inactive) | 2.47 µM (inactive) | 1.83 µM (inactive) | 1.82 µM (inactive) | 3.3 µM (inactive) | 1.73 µM (inactive) | 1.5 µM (inactive) |
| COc1cc2nc(-c3cccs3)nc(N3CCN(c4ccccc4)CC3)c2cc1OC | > 100 µM (inactive) | > 100 µM (inactive) | > 100 µM (inactive) | > 100 µM (inactive) |  | > 100 µM (inactive) | > 100 µM (inactive) |  | > 100 µM (inactive) | > 100 µM (inactive) | > 100 µM (inactive) | > 100 µM (inactive) | > 100 µM (inactive) | > 100 µM (inactive) | > 100 µM (inactive) | > 100 µM (inactive) | > 100 µM (inactive) | > 100 µM (inactive) | > 100 µM (inactive) | > 100 µM (inactive) |
| O=C1C(Cl)=C(NCCc2ccc(O)cc2)C(=O)c2c(O)ccc(O)c21 | 1.88 µM (inactive) | 4.36 µM (inactive) | > 10 µM (inactive) | > 10 µM (inactive) | > 10 µM (inactive) | > 10 µM (inactive) | > 10 µM (inactive) |  |  | 4.74 µM (inactive) | > 10 µM (inactive) | > 10 µM (inactive) | 5.42 µM (inactive) | > 10 µM (inactive) | 4.8 µM (inactive) | 4.13 µM (inactive) | 8.28 µM (inactive) | 9.12 µM (inactive) | 9.46 µM (inactive) | > 10 µM (inactive) |
| CCOC(=O)c1nc2cc(F)cc(F)c2[nH]c1=O |  | > 100 µM (inactive) | > 100 µM (inactive) | > 100 µM (inactive) | > 100 µM (inactive) | > 100 µM (inactive) | > 100 µM (inactive) |  | > 100 µM (inactive) | > 100 µM (inactive) | > 100 µM (inactive) | > 100 µM (inactive) | > 100 µM (inactive) | > 100 µM (inactive) | > 100 µM (inactive) | > 100 µM (inactive) | > 100 µM (inactive) | > 100 µM (inactive) | > 100 µM (inactive) | > 100 µM (inactive) |
| CCC1OC2C(CC=C(C)C)=C3OC(C)(O)C(C)(CC)C(O)C3=C3OC(=O)C=C1C32 (stereo not given) |  | 67 µM (inactive) | 70.6 µM (inactive) | 38.3 µM (inactive) | 24.5 µM (inactive) | 29.9 µM (inactive) | 58.9 µM (inactive) |  | 50.8 µM (inactive) | 33.9 µM (inactive) | 19 µM (inactive) | 29 µM (inactive) |  | 23 µM (inactive) |  | 31.3 µM (inactive) | 26.1 µM (inactive) | 27 µM (inactive) | 37.2 µM (inactive) | 55.1 µM (inactive) |
| COC(=O)C(C)NC(=O)C(CCSC)NC(=O)C(Cc1ccccc1)NC(=O)OC(C)(C)C (stereo not drawn) (Boc-Phe-Met-Ala-OMe; configuration not given here) | > 100 µM (inactive) | > 100 µM (inactive) | > 100 µM (inactive) | > 100 µM (inactive) | > 100 µM (inactive) | > 100 µM (inactive) | > 100 µM (inactive) |  | > 100 µM (inactive) | > 100 µM (inactive) | > 100 µM (inactive) | > 100 µM (inactive) | 63.2 µM (inactive) | > 100 µM (inactive) | > 100 µM (inactive) | > 100 µM (inactive) | > 100 µM (inactive) | > 100 µM (inactive) | > 100 µM (inactive) | > 100 µM (inactive) |
| C\C(=N/N=C1/C(=C\N(C)C)C(=O)NC(=O)N1C)c1ccc(Cl)cc1 | > 100 µM (inactive) | 37.6 µM (inactive) | 57.3 µM (inactive) | > 100 µM (inactive) | > 100 µM (inactive) | > 100 µM (inactive) | > 100 µM (inactive) | > 100 µM (inactive) | > 100 µM (inactive) | > 100 µM (inactive) | > 100 µM (inactive) | 82.4 µM (inactive) |  | > 100 µM (inactive) | > 100 µM (inactive) | > 100 µM (inactive) | 57.9 µM (inactive) | > 100 µM (inactive) | > 100 µM (inactive) | 68.5 µM (inactive) |
